Measured values as given in US7923440B2, “Method of treating or preventing immune mediated disorders and pharmaceutical formulation for use therein” (Pantarhei Bioscience B.V., priority 2002, dated 2011).

How the values were obtained:
[1] = target: T1, human sex Hormone Binding Globulin (SHBG) (Homo sapiens, UniProt P04278); assay: Competitive steroid-binding assay for SHBG; conditions: comparison among tested steroids; order ethinylestradiol, 17β-estradiol, testosterone, 5α-dihydrotestosterone
T1 construct: made in house; host or cells: transgenic mouse (serum)
T1 sequence (P04278 30-402): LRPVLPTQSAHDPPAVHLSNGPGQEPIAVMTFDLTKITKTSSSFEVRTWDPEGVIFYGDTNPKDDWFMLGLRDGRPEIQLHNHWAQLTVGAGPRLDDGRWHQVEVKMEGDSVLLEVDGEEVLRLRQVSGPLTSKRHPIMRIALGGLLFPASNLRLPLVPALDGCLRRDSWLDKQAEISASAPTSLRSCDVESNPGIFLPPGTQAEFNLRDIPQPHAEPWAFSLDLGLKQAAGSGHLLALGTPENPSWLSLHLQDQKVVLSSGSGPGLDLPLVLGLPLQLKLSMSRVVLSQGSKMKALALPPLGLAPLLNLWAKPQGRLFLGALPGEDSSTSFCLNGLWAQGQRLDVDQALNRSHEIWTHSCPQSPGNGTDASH
Procedure: Human SHBG was treated for 30 min at room temperature with a dextran-coated charcoal (DCC) suspension in phosphate buffered saline (PBS) to remove any steroid ligand. After centrifugation (2,000×g for 10 min) to sediment the DCC, the supernatant containing the human SHBG was diluted in PBS to a concentration of 1 nM based on its steroid binding capacity.
The average amounts of [^3H]labeled ligands bound to SHBG at each concentration of competitor (B) were expressed as a percentage of the average amounts of [^3H]labeled ligands bound to SHBG in the absence of competitor (B0), and were plotted against the concentration of competitor in each assay tube.

[2] = system: castrated mice with experimental autoimmune encephalomyelitis (EAE); conditions: amount inducing serum levels of late stage pregnancy, Jansson et al. 1998; cited from earlier work
[3] = system: AP-1 site in the presence of ERα; conditions: Paech et al. 1997; cited from earlier work
[4] = system: AP-1 site in the presence of ERβ; conditions: in the presence of / through ERβ, Paech et al. 1997; cited from earlier work
[5] = elimination from the blood; cited from earlier work
[6] = system: male DBA/1 mice with collagen induced arthritis (CIA); assay: Collagen induced arthritis (CIA) in male DBA/1 mice, oral treatment; type: in vivo, mouse; conditions: 1 mg/kg
Procedure: The ability of estetrol to alleviate the severity of immune mediated disorders and its possible side-effects were evaluated and compared with dexamethasone in mice developing collagen induced arthritis (CIA), which is another experimental system of autoimmune and chronic inflammatory disease, representing human arthritic diseases, particularly rheumatoid arthritis (RA).
Arthritis was induced in male DBA/1 mice using a two-step immunization protocol (Joosten et al., “Dual role of IL-12 in early and late stages of murine collagen type II arthritis”. J Immunol 1997; 159:4094-4102; Joosten et al., “IL-1β blockade prevents cartilage and bone destruction in murine type II collagen-induced arthritis, whereas TNFα blockade only ameliorates joint inflammation”. J Immunol 1999; 163:5049-55). This strain is highly susceptible to CIA induced with bovine type II collagen. On day 0, mice were immunized with bovine type II collagen (100 μg) emulsified in Freund's complete adjuvant (four subcutaneous injections in the back). On day 21, mice were boosted with an i.p. injection of 100 μg collagen type II diluted in PBS.
The effect of oral treatment with estetrol on collagen-induced arthritis was studied in a 6-week study design. From day 22 until the end of the study (day 42), the animals were treated once daily with vehicle (hydroxypropyl-beta-cyclodextrin in a 20% wt/vol solution in water) serving as negative control or four different dosages of estetrol (3 mg/kg, 1 mg/kg, 0.3 mg/kg and 0.1 mg/kg). Dexamethasone (1 mg/kg), was chosen as a positive control because it is a well studied corticosteroid that reduces swelling and inflammation and is used in a variety of disorders such as skin diseases (psoriasis, hives), allergic conditions, breathing problems, cancer, blood disorders (anemia), digestive problems, eye disorders and for the treatment of arthritis. Although effective as an anti-inflammatory agent, dexamethasone is also known to induce a number of side effects, which amongst others include in humans the induction of osteoporosis, reduced adrenal function, dizziness, nausea, indigestion, increased appetite, weight gain due to enhanced water retention, weakness and/or sleep disturbances. In addition, systemic dexamethasone treatment in rodents results in strong catabolic effects that can be easily observed as weight loss (Orzechowski et al. 2002, “Rats with a glucocorticoid-induced catabolic state show symptoms of oxidative stress and spleen atrophy: the effects of age and recovery”. J Vet Med A Physiol Pathol Clin Med; 49:256-63).
All groups used in the study consisted of 13 mice. During the study animals were weighed and monitored for clinical signs of arthritis. Scoring of disease severity (clinical arthritis score) was performed according to scoring system described by Joosten et al. 1997 (J. Immunol., 159:4094-4102) and Joosten et al. 1999 (J. Immunol., 163:5049-55).
Basic statistical analyses were performed as follows: The significance of differences between all treatment groups in the main clinical outcome parameters was tested using analysis of variance (ANOVA). Each significant ANOVA was followed by post hoc Tukey tests to determine the significance of the difference between each treatment group and the control group. Furthermore, linear regression analysis was used to study the dose-dependency of the effects of treatment with estetrol. All statistical analysis were performed using statistical software program SPSS 10.0 for Windows (SPSS Inc., Chicago, Ill., USA).

## C[C@]12CC[C@H]3[C@@H](CCC4=CC(=O)CC[C@@]43C)[C@@H]1CC[C@@H]2O [testosterone, reference compound]
[1]
  relative binding affinity for human SHBG: in this order, show an increased relative binding affinity for human SHBG

## C[C@]12CC[C@@H]3c4ccc(O)cc4CC[C@H]3[C@@H]1C[C@@H](O)[C@@H]2O [estriol]
[2]
  onset of experimental autoimmune encephalomyelitis (EAE): delays the onset

## O=C(c1ccc(OCCN2CCCCC2)cc1)c1c(-c2ccc(O)cc2)sc2cc(O)ccc12 [raloxifene]
[3]
  effect on AP-1 site: inhibit
[4]
  effect on AP-1 site: stimulate

## C[C@]12CC[C@@H]3c4ccc(O)cc4CC[C@H]3[C@@H]1CC[C@@H]2O [E2, 17β-estradiol]
[5]
  half-life: around 1 hour
[3]
  effect on AP-1 site: activates
[4]
  effect on AP-1 site: inhibits
[2]
  onset of experimental autoimmune encephalomyelitis (EAE): delays the onset

## C[C@]12CCC(=O)C[C@@H]1CC[C@@H]1[C@@H]2CC[C@]2(C)[C@@H](O)CC[C@@H]12 [5α-dihydrotestosterone, reference compound]
[1]
  relative binding affinity for human SHBG: in this order, show an increased relative binding affinity for human SHBG

## C[C@]12CC[C@@H]3c4ccc(O)cc4C[C@@H](CCCCCCCCC[S+]([O-])CCCC(F)(F)C(F)(F)F)[C@H]3[C@@H]1CC[C@@H]2O (stereo partly shown) [ICI-182,780]
[3]
  effect on AP-1 site: inhibit
[4]
  effect on AP-1 site: stimulate

## CC/C(=C(\c1ccccc1)c1ccc(OCCN(C)C)cc1)c1ccccc1 [tamoxifen]
[3]
  effect on AP-1 site: inhibit
[4]
  effect on AP-1 site: stimulate

## C[C@@H]1C[C@H]2[C@@H]3CCC4=CC(=O)C=C[C@]4(C)[C@@]3(F)[C@@H](O)C[C@]2(C)[C@@]1(O)C(=O)CO [dexamethasone, reference compound]
[6]; day 21 to 42, vehicle 31.4±1.73
  average cumulative arthritis score: 0
[6]; day 28
  body weight, % of initial weight (day 21): 91.5%
[6]; day 35
  body weight, % of initial weight (day 21): 91.4%
[6]; day 42
  body weight, % of initial weight (day 21): 94.0%
[6]; until day 42, vehicle 5.90±0.38 on day 42
  macroscopic arthritis score: 0
[6]; up to day 42
  disease incidence (arthritis): 0%
